The values below are quoted from earlier work in patent US11529387B2, “Nutritional supplements and methods of nutritional supplementation affecting global mood state” (Amare Global, priority 2019, dated 2022).

The conditions of series [1]: runners, submaximal running intensity, week 8 post-supplementation vs pre-supplementation and vs placebo, p<0.05.

As for `CC1=C(/C=C/C(C)=C/C=C/C(C)=C/C=C/C=C(C)/C=C/C=C(C)/C=C/C2=C(C)C(=O)[C@@H](O)CC2(C)C)C(C)(C)C[C@H](O)C1=O` [NAX, astaxanthin], the “Global Mood State score” value (8 weeks post-supplementation, lower score = more positive mood) is on record as 127+20. The “Global Mood change” value (8 weeks post-supplementation, lower score = more positive mood, p<0.05) is −11%. Under “baseline to week 8, NS”, the Anger sub-scale change is given as −12%, the Confusion sub-scale change is reported as −28%, the Tension sub-scale change is listed as −20% and the Vigor sub-scale change result is listed as “+5%”. Moreover, under “baseline to week 8, p<0.05”, the Depression sub-scale change was −57% and the Fatigue sub-scale change is recorded as −36%. In series [1], the “heart rate (HR) at AT, anaerobic threshold” value was “significantly lower heart rate” and the “heart rate (HR) at AeT, aerobic threshold” value is recorded as “significantly lower heart rate”.
